Measured values from US6958402B2, “3-(imidazolyl)-2-alkoxypropanoic acids” (Pfizer, Inc., priority 2002, dated 2005).
Counter-ions that a name gives are not always drawn.

What was measured:
[1] = biological target: T1, TAFIa (activated human TAFI) (Homo sapiens, UniProt Q96IY4); assay: Assay for TAFIa inhibition (Ki determination, FAAL substrate hydrolysis); type: biochemical; settings: Ki calculated from IC50 with Cheng-Prusoff equation; substrate furylacryloyl-alanyl-lysine, 24° C.; read-out: Ki (TAFla)
T1 sequence (Q96IY4 115-423): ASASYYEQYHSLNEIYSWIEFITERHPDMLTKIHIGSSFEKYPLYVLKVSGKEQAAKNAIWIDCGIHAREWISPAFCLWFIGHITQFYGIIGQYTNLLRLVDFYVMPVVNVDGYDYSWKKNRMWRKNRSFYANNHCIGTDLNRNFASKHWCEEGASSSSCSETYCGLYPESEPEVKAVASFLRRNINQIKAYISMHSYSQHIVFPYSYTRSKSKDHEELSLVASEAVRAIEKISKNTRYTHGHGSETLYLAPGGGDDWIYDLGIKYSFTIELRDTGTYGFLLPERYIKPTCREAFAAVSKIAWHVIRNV
Procedure: The compounds are incubated with activated TAFI and a standard substrate for TAFIa, the rate of hydrolysis of the substrate is determined and compared to the rate of hydrolysis in the absence of the compounds, and the amount of inhibition expressed in terms of Ki.
Human TAFI (recombinant or purified) was activated by incubating 20 μl of stock solution (360 μg/ml) with 10 μl of human thrombin (10NIH units/ml), 10 μl of rabbit thrombomodulin (30 μg/ml), 6 μl calcium chloride (50 mM) in 50 μl of 20 mM HEPES (N-[2-hydroxyethyl]piperazine-N-[2-ethanesulfonic acid]) buffer containing 150 mM sodium chloride and 0.01% TWEEN 80 (polyoxyethylene-sorbitan monooleate) pH 7.6 for 20 minutes at 22° C. At the end of the incubation period, thrombin was neutralised by the addition of 10 μL of PPACK (D-Phe-Pro-Arg chloromethyi ketone) (100 nM). The resulting TAFIa. solution was stored on ice for 5 minutes and finally diluted with 175 μl of HEPES buffer.
(§1) A number of different dilutions of the test compound in water were made up. To 20 μl of each dilution was added 150 μl of HEPES buffer and 10 μl of TAFIa, which was then pre-incubated for 15 minutes at 24° C. To each dilution was then added 20 μl furylacryloyl-alanyl-lysine (FAAL) at a standard concentration. Substrate turnover was measured by reading the absorbance of the reaction mixture at 330 nm every 15 seconds for 30 minutes. The reaction was performed at 24° C. and samples were mixed for 3 seconds prior to each absorbance reading.
(§2) A graph of % inhibition against test compound concentration was then plotted; from which was calculated the IC50 value. The Ki value was then calculated using the Cheng-Prusoff equation.
For the first control, the assay was performed as above, but with 20 μl of water rather than a dilution of the test compound.

[2] = biological target: T2, human CPN (Homo sapiens, UniProt P15169); assay: CPN Ki determination (TAFIa assay with human CPN substituted for TAFIa); type: biochemical
T2 sequence (P15169 21-458): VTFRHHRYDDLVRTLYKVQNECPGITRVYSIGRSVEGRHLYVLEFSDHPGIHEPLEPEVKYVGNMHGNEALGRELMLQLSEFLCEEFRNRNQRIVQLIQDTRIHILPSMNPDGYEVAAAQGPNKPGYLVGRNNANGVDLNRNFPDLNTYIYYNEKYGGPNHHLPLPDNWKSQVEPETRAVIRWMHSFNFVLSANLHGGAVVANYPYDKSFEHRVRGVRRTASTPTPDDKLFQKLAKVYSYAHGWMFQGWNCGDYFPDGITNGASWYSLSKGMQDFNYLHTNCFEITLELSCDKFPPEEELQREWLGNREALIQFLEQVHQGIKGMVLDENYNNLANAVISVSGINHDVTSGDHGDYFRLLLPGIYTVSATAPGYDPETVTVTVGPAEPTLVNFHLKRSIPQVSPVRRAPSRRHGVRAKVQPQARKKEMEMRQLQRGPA
T2 sequence (P22792 22-545 partner): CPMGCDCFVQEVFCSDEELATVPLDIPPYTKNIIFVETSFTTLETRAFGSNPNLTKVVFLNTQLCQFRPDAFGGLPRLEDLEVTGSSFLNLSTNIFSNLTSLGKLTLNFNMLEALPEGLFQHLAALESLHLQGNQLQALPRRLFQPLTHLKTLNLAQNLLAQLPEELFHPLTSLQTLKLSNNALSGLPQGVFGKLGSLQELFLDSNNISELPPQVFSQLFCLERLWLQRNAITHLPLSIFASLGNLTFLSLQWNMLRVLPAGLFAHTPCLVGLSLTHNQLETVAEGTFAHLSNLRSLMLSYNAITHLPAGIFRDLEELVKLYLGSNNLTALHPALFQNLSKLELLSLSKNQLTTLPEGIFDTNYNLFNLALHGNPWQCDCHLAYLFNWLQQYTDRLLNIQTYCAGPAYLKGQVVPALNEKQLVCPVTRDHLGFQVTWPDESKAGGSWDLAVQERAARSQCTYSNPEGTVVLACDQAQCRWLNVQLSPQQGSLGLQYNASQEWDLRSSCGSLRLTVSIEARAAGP
Procedure: as §1, §2
The selectivity of the compounds of the present invention for TAFIa over CPN was determined by calculating the Ki of the compounds of the present invention for CPN, then comparing it to the Ki for TAFIa. The Ki was calculated using the assay for the calculation of TAFIa Ki, but substituting 10 μl of human CPN for 10 μl of TAFIa.

SMILES | Ki [1] [nM] | Selectivity for TAFIa over CPN ([2]; Ki for CPN compared to Ki for TAFIa) | Ki ([2]; same assay with 10 μl human CPN in place of TAFIa) [nM]
NCCOC(Cc1cn(CCc2ccccc2)cn1)C(=O)O (stereo not shown) [Example 4] | 10 | – | –
NCCO[C@@H](Cc1cn(CCC2CCCCC2)cn1)C(=O)O [Example 5, (2S)-(−)-2-(2-Aminoethoxy)-3-[1-(2-cyclohexylethyl)-1H-imidazol-4-yl]propanoic acid] | 10 | – | –
NCCOC(Cc1cn(-c2cccc(Oc3ccccc3)c2)cn1)C(=O)O (stereo not shown) [Example 40, 2-(2-Aminoethoxy)-3-[1-(3-phenoxyphenyl)-1H-imidazol-4-yl]propanoic acid dihydrochloride] | 14 | – | –
C[C@H](CN)O[C@@H](Cc1cn(-c2ccc(OC3CCCCC3)cc2)cn1)C(=O)O [Example 49, (2S)-2-{[(1R)-2-Amino-1-methylethyl]oxy}-3-{1-[4-(cyclohexyloxy)phenyl]-1H-imidazol-4-yl}propanoic acid] | 9 | – | –
C[C@H](CN)O[C@@H](Cc1c[nH]cn1)C(=O)O [Example 51, (2S)-2-{[(1R)-2-Amino-1-methylethyl]oxy}-3-(1H-imidazol-4-yl)propanoic acid] | 26 | >380 | > 10000
